{"source": "PubChem BioAssay (NCI)", "assay_in_all_cases": "DTP human tumour cell line panel, 48 h", "key": {"SNB-78 CNS": {"tested_on": "SNB-78 CNS"}, "IGROV1 ovarian": {"tested_on": "IGROV1 ovarian"}, "EKVX NSCLC": {"tested_on": "EKVX NSCLC"}, "HCC-2998 colon": {"tested_on": "HCC-2998 colon"}, "HOP-18 NSCLC": {"tested_on": "HOP-18 NSCLC"}, "DLD-1 colon": {"tested_on": "DLD-1 colon"}, "SW-620 colon": {"tested_on": "SW-620 colon"}, "HT29 colon": {"tested_on": "HT29 colon"}, "HL-60(TB) leukemia": {"tested_on": "HL-60(TB) leukemia"}, "NCI-H460 lung": {"tested_on": "NCI-H460 lung"}, "OVCAR-4 ovarian": {"tested_on": "OVCAR-4 ovarian"}, "SF-268 CNS": {"tested_on": "SF-268 CNS"}, "SK-OV-3 ovarian": {"tested_on": "SK-OV-3 ovarian"}, "NCI-H522 lung": {"tested_on": "NCI-H522 lung"}, "OVCAR-8 ovarian": {"tested_on": "OVCAR-8 ovarian"}, "K-562 leukemia": {"tested_on": "K-562 leukemia"}, "COLO 205 colon": {"tested_on": "COLO 205 colon"}, "UACC-62 melanoma": {"tested_on": "UACC-62 melanoma"}, "786-0 renal": {"tested_on": "786-0 renal"}, "U251 CNS": {"tested_on": "U251 CNS"}, "MOLT-4 leukemia": {"tested_on": "MOLT-4 leukemia"}, "LXFL 529 NSCLC": {"tested_on": "LXFL 529 NSCLC"}, "DMS 114 small cell lung": {"tested_on": "DMS 114 small cell lung"}, "SNB-75 CNS": {"tested_on": "SNB-75 CNS"}, "SF-295 CNS": {"tested_on": "SF-295 CNS"}, "RPMI-8226 leukemia": {"tested_on": "RPMI-8226 leukemia"}, "OVCAR-3 ovarian": {"tested_on": "OVCAR-3 ovarian"}, "DMS 273 small cell lung": {"tested_on": "DMS 273 small cell lung"}, "KM20L2 colon": {"tested_on": "KM20L2 colon"}, "KM12 colon": {"tested_on": "KM12 colon"}, "HCT-116 colon": {"tested_on": "HCT-116 colon"}, "LOX IMVI melanoma": {"tested_on": "LOX IMVI melanoma"}, "SK-MEL-5 melanoma": {"tested_on": "SK-MEL-5 melanoma"}, "HOP-62 NSCLC": {"tested_on": "HOP-62 NSCLC"}, "CCRF-CEM leukemia": {"tested_on": "CCRF-CEM leukemia"}, "SNB-19 CNS": {"tested_on": "SNB-19 CNS"}, "RXF 393 renal": {"tested_on": "RXF 393 renal"}, "SK-MEL-28 melanoma": {"tested_on": "SK-MEL-28 melanoma"}, "NCI-H226 lung": {"tested_on": "NCI-H226 lung"}, "TK-10 renal": {"tested_on": "TK-10 renal"}, "M14 melanoma": {"tested_on": "M14 melanoma"}, "NCI-H23 lung": {"tested_on": "NCI-H23 lung"}, "SF-539 CNS": {"tested_on": "SF-539 CNS"}, "A549 NSCLC": {"tested_on": "A549 NSCLC"}, "SN12C renal": {"tested_on": "SN12C renal"}}, "note": "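48-hour exposure; five concentrations; linearly interpolated endpoints. At the GI50, growth is halved. TGI denotes the concentration required for complete inhibition of growth.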", "data": [{"smiles": "Cn1ccnc1C[N-]Cc1nccn1C.O=[N+]([O-])[O-].O=[N+]([O-])[O-].[Cu+2]", "values": [{"measurement": "GI50", "setting": "SNB-78 CNS", "value": "> 100", "unit": "µM"}, {"measurement": "TGI", "setting": "SNB-78 CNS", "value": "> 100", "unit": "µM"}, {"measurement": "GI50", "setting": "IGROV1 ovarian", "value": "> 100", "unit": "µM"}, {"measurement": "TGI", "setting": "IGROV1 ovarian", "value": "> 100", "unit": "µM"}, {"measurement": "GI50", "setting": "EKVX NSCLC", "value": "> 100", "unit": "µM"}, {"measurement": "TGI", "setting": "EKVX NSCLC", "value": "> 100", "unit": "µM"}, {"measurement": "GI50", "setting": "HCC-2998 colon", "value": "> 100", "unit": "µM"}, {"measurement": "TGI", "setting": "HCC-2998 colon", "value": "> 100", "unit": "µM"}, {"measurement": "GI50", "setting": "HOP-18 NSCLC", "value": "> 100", "unit": "µM"}, {"measurement": "TGI", "setting": "HOP-18 NSCLC", "value": "> 100", "unit": "µM"}, {"measurement": "GI50", "setting": "DLD-1 colon", "value": "> 100", "unit": "µM"}, {"measurement": "TGI", "setting": "DLD-1 colon", "value": "> 100", "unit": "µM"}, {"measurement": "GI50", "setting": "SW-620 colon", "value": "> 100", "unit": "µM"}, {"measurement": "TGI", "setting": "SW-620 colon", "value": "> 100", "unit": "µM"}, {"measurement": "GI50", "setting": "HT29 colon", "value": "> 100", "unit": "µM"}, {"measurement": "TGI", "setting": "HT29 colon", "value": "> 100", "unit": "µM"}, {"measurement": "GI50", "setting": "HL-60(TB) leukemia", "value": "> 100", "unit": "µM"}, {"measurement": "TGI", "setting": "HL-60(TB) leukemia", "value": "> 100", "unit": "µM"}, {"measurement": "GI50", "setting": "NCI-H460 lung", "value": 62.8, "unit": "µM"}, {"measurement": "TGI", "setting": "NCI-H460 lung", "value": "> 100", "unit": "µM"}, {"measurement": "GI50", "setting": "OVCAR-4 ovarian", "value": 2.49, "unit": "µM"}, {"measurement": "TGI", "setting": "OVCAR-4 ovarian", "value": "> 100", "unit": "µM"}, {"measurement": "GI50", "setting": "SF-268 CNS", "value": "> 100", "unit": "µM"}, {"measurement": "TGI", "setting": "SF-268 CNS", "value": "> 100", "unit": "µM"}, {"measurement": "GI50", "setting": "SK-OV-3 ovarian", "value": "> 100", "unit": "µM"}, {"measurement": "TGI", "setting": "SK-OV-3 ovarian", "value": "> 100", "unit": "µM"}, {"measurement": "GI50", "setting": "NCI-H522 lung", "value": "> 100", "unit": "µM"}, {"measurement": "TGI", "setting": "NCI-H522 lung", "value": "> 100", "unit": "µM"}, {"measurement": "GI50", "setting": "OVCAR-8 ovarian", "value": "> 100", "unit": "µM"}, {"measurement": "TGI", "setting": "OVCAR-8 ovarian", "value": "> 100", "unit": "µM"}, {"measurement": "GI50", "setting": "K-562 leukemia", "value": "> 100", "unit": "µM"}, {"measurement": "TGI", "setting": "K-562 leukemia", "value": "> 100", "unit": "µM"}, {"measurement": "GI50", "setting": "COLO 205 colon", "value": "> 100", "unit": "µM"}, {"measurement": "TGI", "setting": "COLO 205 colon", "value": "> 100", "unit": "µM"}, {"measurement": "GI50", "setting": "UACC-62 melanoma", "value": 25.8, "unit": "µM"}, {"measurement": "TGI", "setting": "UACC-62 melanoma", "value": "> 100", "unit": "µM"}, {"measurement": "GI50", "setting": "786-0 renal", "value": "> 100", "unit": "µM"}, {"measurement": "TGI", "setting": "786-0 renal", "value": "> 100", "unit": "µM"}, {"measurement": "GI50", "setting": "U251 CNS", "value": "> 100", "unit": "µM"}, {"measurement": "TGI", "setting": "U251 CNS", "value": "> 100", "unit": "µM"}, {"measurement": "GI50", "setting": "MOLT-4 leukemia", "value": "> 100", "unit": "µM"}, {"measurement": "TGI", "setting": "MOLT-4 leukemia", "value": "> 100", "unit": "µM"}, {"measurement": "GI50", "setting": "LXFL 529 NSCLC", "value": "> 100", "unit": "µM"}, {"measurement": "TGI", "setting": "LXFL 529 NSCLC", "value": "> 100", "unit": "µM"}, {"measurement": "GI50", "setting": "DMS 114 small cell lung", "value": "> 100", "unit": "µM"}, {"measurement": "TGI", "setting": "DMS 114 small cell lung", "value": "> 100", "unit": "µM"}, {"measurement": "GI50", "setting": "SNB-75 CNS", "value": "> 100", "unit": "µM"}, {"measurement": "TGI", "setting": "SNB-75 CNS", "value": "> 100", "unit": "µM"}, {"measurement": "GI50", "setting": "SF-295 CNS", "value": "> 100", "unit": "µM"}, {"measurement": "TGI", "setting": "SF-295 CNS", "value": "> 100", "unit": "µM"}, {"measurement": "GI50", "setting": "RPMI-8226 leukemia", "value": "> 100", "unit": "µM"}, {"measurement": "TGI", "setting": "RPMI-8226 leukemia", "value": "> 100", "unit": "µM"}, {"measurement": "GI50", "setting": "OVCAR-3 ovarian", "value": "> 100", "unit": "µM"}, {"measurement": "TGI", "setting": "OVCAR-3 ovarian", "value": "> 100", "unit": "µM"}, {"measurement": "GI50", "setting": "DMS 273 small cell lung", "value": 73.8, "unit": "µM"}, {"measurement": "TGI", "setting": "DMS 273 small cell lung", "value": "> 100", "unit": "µM"}, {"measurement": "GI50", "setting": "KM20L2 colon", "value": "> 100", "unit": "µM"}, {"measurement": "TGI", "setting": "KM20L2 colon", "value": "> 100", "unit": "µM"}, {"measurement": "GI50", "setting": "KM12 colon", "value": "> 100", "unit": "µM"}, {"measurement": "TGI", "setting": "KM12 colon", "value": "> 100", "unit": "µM"}, {"measurement": "GI50", "setting": "HCT-116 colon", "value": "> 100", "unit": "µM"}, {"measurement": "TGI", "setting": "HCT-116 colon", "value": "> 100", "unit": "µM"}, {"measurement": "GI50", "setting": "LOX IMVI melanoma", "value": "> 100", "unit": "µM"}, {"measurement": "TGI", "setting": "LOX IMVI melanoma", "value": "> 100", "unit": "µM"}, {"measurement": "GI50", "setting": "SK-MEL-5 melanoma", "value": "> 100", "unit": "µM"}, {"measurement": "TGI", "setting": "SK-MEL-5 melanoma", "value": "> 100", "unit": "µM"}, {"measurement": "GI50", "setting": "HOP-62 NSCLC", "value": "> 100", "unit": "µM"}, {"measurement": "TGI", "setting": "HOP-62 NSCLC", "value": "> 100", "unit": "µM"}, {"measurement": "GI50", "setting": "CCRF-CEM leukemia", "value": "> 100", "unit": "µM"}, {"measurement": "TGI", "setting": "CCRF-CEM leukemia", "value": "> 100", "unit": "µM"}, {"measurement": "GI50", "setting": "SNB-19 CNS", "value": "> 100", "unit": "µM"}, {"measurement": "TGI", "setting": "SNB-19 CNS", "value": "> 100", "unit": "µM"}, {"measurement": "GI50", "setting": "RXF 393 renal", "value": "> 100", "unit": "µM"}, {"measurement": "TGI", "setting": "RXF 393 renal", "value": "> 100", "unit": "µM"}, {"measurement": "GI50", "setting": "SK-MEL-28 melanoma", "value": "> 100", "unit": "µM"}, {"measurement": "TGI", "setting": "SK-MEL-28 melanoma", "value": "> 100", "unit": "µM"}, {"measurement": "GI50", "setting": "NCI-H226 lung", "value": "> 100", "unit": "µM"}, {"measurement": "TGI", "setting": "NCI-H226 lung", "value": "> 100", "unit": "µM"}, {"measurement": "GI50", "setting": "TK-10 renal", "value": "> 100", "unit": "µM"}, {"measurement": "TGI", "setting": "TK-10 renal", "value": "> 100", "unit": "µM"}, {"measurement": "GI50", "setting": "M14 melanoma", "value": "> 100", "unit": "µM"}, {"measurement": "TGI", "setting": "M14 melanoma", "value": "> 100", "unit": "µM"}, {"measurement": "GI50", "setting": "NCI-H23 lung", "value": "> 100", "unit": "µM"}, {"measurement": "TGI", "setting": "NCI-H23 lung", "value": "> 100", "unit": "µM"}, {"measurement": "GI50", "setting": "SF-539 CNS", "value": "> 100", "unit": "µM"}, {"measurement": "TGI", "setting": "SF-539 CNS", "value": "> 100", "unit": "µM"}, {"measurement": "GI50", "setting": "A549 NSCLC", "value": "> 100", "unit": "µM"}, {"measurement": "TGI", "setting": "A549 NSCLC", "value": "> 100", "unit": "µM"}, {"measurement": "GI50", "setting": "SN12C renal", "value": "> 100", "unit": "µM"}, {"measurement": "TGI", "setting": "SN12C renal", "value": "> 100", "unit": "µM"}]}]}
